# Measurements reported in ChEMBL document CHEMBL1649420, “Identifying chelators for metalloprotein inhibitors using a fragment-based approach” (J Med Chem, 2011).
# Experiments:
# [1] = target: T1, Lethal factor (Bacillus anthracis) (UniProt P15917); conditions: at 1 mM
# T1 sequence (whole entry): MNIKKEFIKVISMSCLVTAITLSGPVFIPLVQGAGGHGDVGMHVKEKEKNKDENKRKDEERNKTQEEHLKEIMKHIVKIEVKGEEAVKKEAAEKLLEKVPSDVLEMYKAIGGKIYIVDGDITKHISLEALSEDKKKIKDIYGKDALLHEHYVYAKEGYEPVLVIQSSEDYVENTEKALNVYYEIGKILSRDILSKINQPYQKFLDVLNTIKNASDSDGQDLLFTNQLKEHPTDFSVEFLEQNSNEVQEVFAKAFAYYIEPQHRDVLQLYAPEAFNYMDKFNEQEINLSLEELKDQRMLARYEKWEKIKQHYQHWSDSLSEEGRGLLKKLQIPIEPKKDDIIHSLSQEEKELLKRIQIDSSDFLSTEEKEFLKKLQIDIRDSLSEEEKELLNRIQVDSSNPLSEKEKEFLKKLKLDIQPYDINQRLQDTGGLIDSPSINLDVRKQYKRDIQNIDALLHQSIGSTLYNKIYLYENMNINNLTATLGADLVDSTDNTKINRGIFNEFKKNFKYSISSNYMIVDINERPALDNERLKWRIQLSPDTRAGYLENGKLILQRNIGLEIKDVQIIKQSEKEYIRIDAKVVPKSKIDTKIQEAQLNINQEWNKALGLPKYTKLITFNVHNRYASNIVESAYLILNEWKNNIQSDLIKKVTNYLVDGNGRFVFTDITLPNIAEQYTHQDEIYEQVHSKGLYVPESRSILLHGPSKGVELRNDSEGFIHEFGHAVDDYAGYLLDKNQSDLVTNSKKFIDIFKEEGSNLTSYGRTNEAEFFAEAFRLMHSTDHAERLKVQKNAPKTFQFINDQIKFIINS
# [2] = target: T2, Interstitial collagenase (Homo sapiens) (UniProt P03956); conditions: at 1 mM;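 further: recombinant human enzyme, with inhibition measured after 30 min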
# T2 sequence (whole entry): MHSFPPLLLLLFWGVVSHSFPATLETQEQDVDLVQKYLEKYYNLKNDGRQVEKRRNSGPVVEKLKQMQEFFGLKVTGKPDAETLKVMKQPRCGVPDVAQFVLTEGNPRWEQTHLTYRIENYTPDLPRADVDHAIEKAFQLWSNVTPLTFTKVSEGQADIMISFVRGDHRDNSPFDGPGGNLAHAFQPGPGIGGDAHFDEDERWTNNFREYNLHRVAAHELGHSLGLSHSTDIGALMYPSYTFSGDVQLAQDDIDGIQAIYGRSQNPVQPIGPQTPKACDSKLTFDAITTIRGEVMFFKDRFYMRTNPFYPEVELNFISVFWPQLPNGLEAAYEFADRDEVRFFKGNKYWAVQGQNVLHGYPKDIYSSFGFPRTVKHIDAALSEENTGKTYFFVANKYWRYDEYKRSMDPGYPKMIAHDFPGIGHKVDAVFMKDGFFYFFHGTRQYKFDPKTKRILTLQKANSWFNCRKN
# [3] = target: Stromelysin-1 (Homo sapiens) (UniProt P08254); conditions: at 1 mM;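 further: recombinant enzyme, inhibition read after a 30 min incubation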
# [4] = target: T3, Tyrosinase (Agaricus bisporus) (UniProt O42713); conditions: at 1 mM;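 further: inhibition measured at 10 min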
# T3 sequence (whole entry): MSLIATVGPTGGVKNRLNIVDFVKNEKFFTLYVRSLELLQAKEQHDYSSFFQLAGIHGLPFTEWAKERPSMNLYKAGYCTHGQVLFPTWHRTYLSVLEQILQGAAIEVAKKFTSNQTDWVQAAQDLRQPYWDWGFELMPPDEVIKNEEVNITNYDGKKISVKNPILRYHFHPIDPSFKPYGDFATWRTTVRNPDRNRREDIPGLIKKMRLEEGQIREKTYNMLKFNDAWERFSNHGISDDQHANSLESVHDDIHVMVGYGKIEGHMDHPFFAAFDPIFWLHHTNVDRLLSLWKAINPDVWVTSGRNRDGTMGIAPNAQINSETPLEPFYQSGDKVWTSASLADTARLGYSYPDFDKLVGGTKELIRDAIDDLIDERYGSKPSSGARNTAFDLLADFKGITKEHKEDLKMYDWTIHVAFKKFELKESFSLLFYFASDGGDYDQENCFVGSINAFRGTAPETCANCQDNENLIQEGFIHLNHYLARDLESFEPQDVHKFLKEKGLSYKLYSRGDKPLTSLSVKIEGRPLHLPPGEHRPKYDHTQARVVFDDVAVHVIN
# [5] = target: Neutrophil collagenase (Homo sapiens) (UniProt P22894); conditions: at 1 mM;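 further: recombinant human MMP8 enzyme, percent inhibition read after 30 min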
# [6] = target: Matrix metalloproteinase-9 (Homo sapiens) (UniProt P14780); conditions: at 1 mM;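 further: recombinant human MMP9, activity read after 30 min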
# [7] = target: 72 kDa type IV collagenase (Homo sapiens, UniProt P08253); conditions: at 1 mM;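 further: recombinant human enzyme, inhibition read after a 30 min incubation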
# [8] = target: T4, Polyunsaturated fatty acid 5-lipoxygenase (Homo sapiens) (UniProt P09917); assay: Inhibition of human recombinant 5-lipoxygenase at 1 mM after 10 mins by fluorescence assay
# T4 sequence (whole entry): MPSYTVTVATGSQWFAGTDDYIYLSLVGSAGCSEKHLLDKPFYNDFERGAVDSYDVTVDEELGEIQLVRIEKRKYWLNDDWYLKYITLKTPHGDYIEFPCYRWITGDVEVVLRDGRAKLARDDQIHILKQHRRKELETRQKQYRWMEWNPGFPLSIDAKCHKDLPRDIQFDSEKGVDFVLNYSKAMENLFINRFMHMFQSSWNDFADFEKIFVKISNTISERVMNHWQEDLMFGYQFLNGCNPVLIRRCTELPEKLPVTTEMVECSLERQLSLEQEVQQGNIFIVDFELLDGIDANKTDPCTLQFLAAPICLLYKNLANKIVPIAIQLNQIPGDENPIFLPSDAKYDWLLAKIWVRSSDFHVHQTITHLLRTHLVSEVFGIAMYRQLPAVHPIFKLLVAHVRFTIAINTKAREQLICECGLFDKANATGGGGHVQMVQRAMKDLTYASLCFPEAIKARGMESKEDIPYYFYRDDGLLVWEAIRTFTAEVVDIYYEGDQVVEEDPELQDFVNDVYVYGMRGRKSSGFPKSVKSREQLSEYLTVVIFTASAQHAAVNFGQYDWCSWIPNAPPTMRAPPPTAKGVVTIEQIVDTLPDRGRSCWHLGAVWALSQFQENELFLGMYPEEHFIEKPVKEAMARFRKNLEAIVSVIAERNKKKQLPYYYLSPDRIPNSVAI
# Matrix metalloproteinase-9 (Homo sapiens), sequence (P14780 whole entry): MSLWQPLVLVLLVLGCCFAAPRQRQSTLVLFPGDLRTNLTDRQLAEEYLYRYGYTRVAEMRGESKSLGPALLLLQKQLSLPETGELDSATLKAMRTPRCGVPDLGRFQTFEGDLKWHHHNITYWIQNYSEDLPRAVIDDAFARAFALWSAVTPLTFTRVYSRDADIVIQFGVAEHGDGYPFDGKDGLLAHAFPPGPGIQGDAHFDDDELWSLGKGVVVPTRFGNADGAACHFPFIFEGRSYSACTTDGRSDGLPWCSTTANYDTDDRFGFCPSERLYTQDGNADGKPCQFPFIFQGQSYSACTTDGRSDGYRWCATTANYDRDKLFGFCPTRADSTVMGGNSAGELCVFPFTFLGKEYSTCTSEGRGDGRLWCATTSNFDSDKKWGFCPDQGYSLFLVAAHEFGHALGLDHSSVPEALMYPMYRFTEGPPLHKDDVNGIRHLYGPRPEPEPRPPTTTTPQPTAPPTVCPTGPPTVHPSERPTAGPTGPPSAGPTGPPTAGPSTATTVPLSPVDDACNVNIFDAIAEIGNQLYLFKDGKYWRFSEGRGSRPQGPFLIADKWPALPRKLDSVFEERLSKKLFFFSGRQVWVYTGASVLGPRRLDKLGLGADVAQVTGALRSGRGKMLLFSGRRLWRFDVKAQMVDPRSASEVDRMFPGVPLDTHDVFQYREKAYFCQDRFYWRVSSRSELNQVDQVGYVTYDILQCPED
# Stromelysin-1 (Homo sapiens), sequence (P08254 100-477 limits assumed): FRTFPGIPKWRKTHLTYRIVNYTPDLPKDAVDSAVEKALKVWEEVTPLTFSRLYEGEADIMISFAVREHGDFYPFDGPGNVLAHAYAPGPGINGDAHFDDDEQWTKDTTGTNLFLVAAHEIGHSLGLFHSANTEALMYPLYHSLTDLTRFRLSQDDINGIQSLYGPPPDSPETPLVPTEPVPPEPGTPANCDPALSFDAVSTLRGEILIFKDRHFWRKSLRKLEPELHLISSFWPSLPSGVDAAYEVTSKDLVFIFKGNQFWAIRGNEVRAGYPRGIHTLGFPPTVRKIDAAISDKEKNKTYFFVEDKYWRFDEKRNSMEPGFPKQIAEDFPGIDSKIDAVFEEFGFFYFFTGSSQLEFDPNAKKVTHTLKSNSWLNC
# Neutrophil collagenase (Homo sapiens), sequence (P22894 101-467 limits assumed): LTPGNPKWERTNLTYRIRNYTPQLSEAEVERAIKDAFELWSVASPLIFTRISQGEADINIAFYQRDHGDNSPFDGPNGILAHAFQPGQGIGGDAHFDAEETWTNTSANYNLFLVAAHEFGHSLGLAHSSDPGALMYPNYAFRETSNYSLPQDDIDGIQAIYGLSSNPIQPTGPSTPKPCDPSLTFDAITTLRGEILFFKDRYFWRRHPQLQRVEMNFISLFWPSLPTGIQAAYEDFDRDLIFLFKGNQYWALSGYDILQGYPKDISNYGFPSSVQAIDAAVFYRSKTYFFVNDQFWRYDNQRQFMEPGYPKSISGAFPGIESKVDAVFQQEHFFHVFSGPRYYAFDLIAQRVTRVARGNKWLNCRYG
# 72 kDa type IV collagenase, sequence (P08253 110-660 limits assumed): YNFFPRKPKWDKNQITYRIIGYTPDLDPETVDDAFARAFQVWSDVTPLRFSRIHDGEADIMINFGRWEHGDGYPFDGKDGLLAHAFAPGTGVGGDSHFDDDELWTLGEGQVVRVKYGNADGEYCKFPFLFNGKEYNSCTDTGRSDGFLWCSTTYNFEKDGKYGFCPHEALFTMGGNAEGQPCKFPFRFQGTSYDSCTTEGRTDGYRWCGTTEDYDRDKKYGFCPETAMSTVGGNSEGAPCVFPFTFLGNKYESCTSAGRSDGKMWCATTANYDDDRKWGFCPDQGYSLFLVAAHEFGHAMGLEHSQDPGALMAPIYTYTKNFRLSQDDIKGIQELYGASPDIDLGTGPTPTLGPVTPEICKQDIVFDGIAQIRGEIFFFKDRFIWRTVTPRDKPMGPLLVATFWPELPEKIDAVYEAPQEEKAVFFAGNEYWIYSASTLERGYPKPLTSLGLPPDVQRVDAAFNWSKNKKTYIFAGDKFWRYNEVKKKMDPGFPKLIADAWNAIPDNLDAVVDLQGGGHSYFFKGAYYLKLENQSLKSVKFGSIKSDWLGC
Compound,inhibition [1],inhibition [2],inhibition [3],inhibition [4],inhibition [5],inhibition [6],inhibition [7],inhibition [8]
Oc1ccccc1-c1nc2ccccc2s1,1%,6%,4%,34%,40%,3%,7%,
Oc1ccc(Cl)c2cccnc12,44%,39%,45%,0%,73%,1%,60%,
Oc1cc(O)nc(S)n1,18%,30%,38%,99%,25%,15%,17%,72%
Cc1cc(C)nc(S)n1,15%,56%,70%,99%,49%,56%,55%,80%
Oc1ccccc1-c1nc2ccccc2o1,0%,11%,4%,3%,28%,,1%,
O=C1C=C(O)C(=O)c2ccccc21,100%,86%,84%,69%,86%,85%,84%,100%
O=c1cc[nH]c(=S)[nH]1,33%,52%,47%,36%,37%,44%,47%,
O=C(O)c1ccc(O)c(O)c1,21%,14%,0%,50%,13%,-1%,-8%,86%
COc1ccccc1S,19%,11%,-8%,,26%,17%,3%,
Oc1ccc2ccccc2c1O,85%,71%,89%,,100%,86%,71%,69%
[O-][n+]1ccccc1S,23%,78%,100%,81%,90%,77%,91%,70%
Cc1cc(=O)[nH]c(=S)[nH]1,29%,40%,37%,31%,31%,27%,26%,70%
Cn1cccc(O)c1=S,56%,89%,90%,93%,96%,96%,100%,93%
Oc1nccc(S)n1,22%,90%,95%,44%,83%,90%,,46%
Nc1cccc2cccnc12,30%,63%,56%,,61%,57%,51%,
CCc1c(O)c(=S)ccn1CC,55%,81%,99%,100%,94%,100%,100%,97%
Cc1ccc(C(=O)O)c(C(=O)O)n1,43%,8%,28%,96%,11%,-10%,,22%
CC(C)c1cccc(C(=O)O)c1O,-3%,13%,5%,91%,3%,9%,-2%,-3%
CS(=O)(=O)Nc1cccc2cccnc12,,57%,64%,,75%,59%,84%,13%
Cc1c(O)c(=S)ccn1C,51%,78%,99%,100%,95%,100%,100%,95%
CCn1ccc(=S)c(O)c1C,60%,98%,99%,100%,93%,100%,100%,96%
O=c1ccc2ccccc2[nH]1,36%,20%,3%,5%,33%,5%,5%,22%
